The values that follow come from ChEMBL document CHEMBL1133403 (Bioorg Med Chem Lett, 2000).

Molecules are shown by their SMILES.

One assay deals with T1, Glucocorticoid receptor (Homo sapiens, UniProt P04150).
T1 sequence (P04150 whole entry): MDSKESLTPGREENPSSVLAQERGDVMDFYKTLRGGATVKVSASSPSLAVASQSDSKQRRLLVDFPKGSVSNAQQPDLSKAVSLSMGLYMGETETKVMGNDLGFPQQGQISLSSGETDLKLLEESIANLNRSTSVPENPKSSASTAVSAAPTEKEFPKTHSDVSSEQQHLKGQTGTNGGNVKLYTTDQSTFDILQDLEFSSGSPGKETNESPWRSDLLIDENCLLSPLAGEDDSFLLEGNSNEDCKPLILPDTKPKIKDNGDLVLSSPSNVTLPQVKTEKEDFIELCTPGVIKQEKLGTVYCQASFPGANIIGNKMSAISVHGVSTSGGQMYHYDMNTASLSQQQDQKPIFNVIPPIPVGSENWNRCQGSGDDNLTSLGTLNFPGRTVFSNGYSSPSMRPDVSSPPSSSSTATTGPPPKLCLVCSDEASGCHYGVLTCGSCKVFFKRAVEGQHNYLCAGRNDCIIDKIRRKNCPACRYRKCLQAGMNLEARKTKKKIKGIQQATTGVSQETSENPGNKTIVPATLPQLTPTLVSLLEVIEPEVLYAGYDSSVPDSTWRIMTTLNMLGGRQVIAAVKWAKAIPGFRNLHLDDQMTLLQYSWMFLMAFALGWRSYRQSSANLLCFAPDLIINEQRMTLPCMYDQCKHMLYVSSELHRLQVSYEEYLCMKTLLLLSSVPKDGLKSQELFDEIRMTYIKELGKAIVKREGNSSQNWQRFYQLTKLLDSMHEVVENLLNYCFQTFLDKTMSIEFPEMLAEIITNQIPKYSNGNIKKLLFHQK
Nature of the assay: Cross-reactivity as binding to human glucocorticoid receptor (hGR); NA=not active. It counts as functional.

In assay [1] the target is T2, Progesterone receptor (Homo sapiens, UniProt P06401).
T2 sequence (P06401 whole entry): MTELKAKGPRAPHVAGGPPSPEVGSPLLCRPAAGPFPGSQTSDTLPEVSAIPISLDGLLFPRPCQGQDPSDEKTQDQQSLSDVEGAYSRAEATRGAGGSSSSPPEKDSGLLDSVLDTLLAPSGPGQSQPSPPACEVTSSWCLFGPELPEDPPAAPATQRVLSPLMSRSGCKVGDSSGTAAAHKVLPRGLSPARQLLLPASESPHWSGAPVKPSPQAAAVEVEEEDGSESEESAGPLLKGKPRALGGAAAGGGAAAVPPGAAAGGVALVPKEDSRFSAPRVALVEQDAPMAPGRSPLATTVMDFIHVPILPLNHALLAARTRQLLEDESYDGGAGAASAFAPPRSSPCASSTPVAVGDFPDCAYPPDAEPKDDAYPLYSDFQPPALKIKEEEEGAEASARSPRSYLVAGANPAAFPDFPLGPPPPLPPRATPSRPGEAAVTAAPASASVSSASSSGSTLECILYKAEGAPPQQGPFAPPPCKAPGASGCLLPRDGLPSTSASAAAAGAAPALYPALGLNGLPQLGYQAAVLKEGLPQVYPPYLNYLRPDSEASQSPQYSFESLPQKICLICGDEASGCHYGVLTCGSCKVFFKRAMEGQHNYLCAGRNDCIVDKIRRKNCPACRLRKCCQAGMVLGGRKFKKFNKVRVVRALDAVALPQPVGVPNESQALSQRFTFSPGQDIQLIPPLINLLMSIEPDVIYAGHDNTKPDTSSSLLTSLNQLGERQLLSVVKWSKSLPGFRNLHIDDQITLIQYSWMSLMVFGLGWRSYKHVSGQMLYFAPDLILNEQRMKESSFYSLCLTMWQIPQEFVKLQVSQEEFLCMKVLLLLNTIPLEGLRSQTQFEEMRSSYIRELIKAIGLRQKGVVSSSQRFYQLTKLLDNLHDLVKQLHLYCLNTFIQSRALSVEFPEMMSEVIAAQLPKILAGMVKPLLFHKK
Nature of the assay: Human progesterone receptor (hPR) agonist activity in T47D human breast cancer cell line. It counts as functional, cell-based.

Assay [2] has as its target T2, Progesterone receptor. The experiment in a line: Human progesterone receptor (hPR) agonist activity using cotransfection assay in CV-1 cells. It counts as functional, cell-based.
For assay [3], the target named is T2, Progesterone receptor. Nature of the assay: Antagonist activity against human progesterone receptor (hPR) in T47D human breast cancer cell line. Format: functional, cell-based.
The target in assay [4] is T2, Progesterone receptor. Nature of the assay: Binding affinity against human progesterone receptor (hPR) in a competitive binding assay.
Assay [5] concerns the target T2, Progesterone receptor. The experiment in a line: Antagonist activity against human progesterone receptor (hPR) using cotransfection assay in CV-1 cells. Format: functional, cell-based.

As for `CC1=CC(C)(C)Nc2ccc(-c3ccc([N+](=O)[O-])s3)cc21`, the results for the half-inhibitory concentration (IC50) entry at Glucocorticoid receptor, at Progesterone receptor [3] and against Progesterone receptor [5] were “Not Active”, 0.07 µM and 0.031 µM, respectively. The EC50 at Progesterone receptor [1] is 1.02 µM; at Progesterone receptor [2], “Not Active”. In addition, at Progesterone receptor [4], the affinity corresponds to a Ki of 0.0026 µM.

A word on the IC50: it is the concentration needed to halve the response being measured. As a reminder, the EC50 is the concentration at which the effect is half-maximal. For orientation: Ki means a dissociation constant, usually derived from enzyme kinetics or from competition with a known ligand. A high value points to a looser hold on the target.
